Measurements from ChEMBL document CHEMBL3044810, “Synthesis and herbicidal activity of alkyl 1-(3-trifluoromethylphenoxyacetoxy)-1-substituted methylphosphonates” (J Pestic Sci, 2007).

Columns and labels:
Echinochloa crus-galli [1] = experiment: Pre-emergence herbicidal activity against Echinochloa crus-galli (barnyard grass) assessed as growth inhibition at 1.5 ai kg/ha under green house conditions; format: functional
Digitaria sanguinalis [2] = experiment: Post-emergence herbicidal activity against Digitaria sanguinalis (hairy crabgrass) assessed as growth inhibition at 1.5 ai kg/ha under green house conditions; format: functional
Cucumis sativus = experiment: Pre-emergence growth inhibition of Cucumis sativus (cucumber) under green house conditions; format: functional, organism-based
Echinochloa crus-galli [3] = experiment: Post-emergence herbicidal activity against Echinochloa crus-galli (barnyard grass) assessed as growth inhibition at 1.5 ai kg/ha under green house conditions; format: functional
Amaranthus retroflexus [4] = experiment: Post-emergence herbicidal activity against Amaranthus retroflexus assessed as growth inhibition at 1.5 ai kg/ha under green house conditions; format: functional
Brassica napus [5] = experiment: Post-emergence herbicidal activity against Brassica napus (oilseed rape) assessed as growth inhibition at 1.5 ai kg/ha under green house conditions; format: functional
Digitaria sanguinalis [6] = experiment: Pre-emergence herbicidal activity against Digitaria sanguinalis (hairy crabgrass) assessed as growth inhibition at 1.5 ai kg/ha under green house conditions; format: functional
Medicago sativa [7] = experiment: Post-emergence herbicidal activity against Medicago sativa (alfalfa) assessed as growth inhibition at 1.5 ai kg/ha under green house conditions; format: functional
Medicago sativa [8] = experiment: Pre-emergence herbicidal activity against Medicago sativa (alfalfa) assessed as growth inhibition at 1.5 ai kg/ha under green house conditions; format: functional
Amaranthus retroflexus [9] = experiment: Pre-emergence herbicidal activity against Amaranthus retroflexus assessed as growth inhibition at 1.5 ai kg/ha under green house conditions; format: functional
Brassica napus [10] = experiment: Pre-emergence herbicidal activity against Brassica napus (oilseed rape) assessed as growth inhibition at 1.5 ai kg/ha under green house conditions; format: functional

Structure (SMILES)	growth inhibition (GI) (Echinochloa crus-galli [1]) [%]	growth inhibition (GI) (Digitaria sanguinalis [2]) [%]	IC50 (Cucumis sativus) [µg/g]	growth inhibition (GI) (Echinochloa crus-galli [3]) [%]	growth inhibition (GI) (Amaranthus retroflexus [4]) [%]	growth inhibition (GI) (Brassica napus [5]) [%]	growth inhibition (GI) (Digitaria sanguinalis [6]) [%]	growth inhibition (GI) (Medicago sativa [7]) [%]	growth inhibition (GI) (Medicago sativa [8]) [%]	growth inhibition (GI) (Amaranthus retroflexus [9]) [%]	growth inhibition (GI) (Brassica napus [10]) [%]
COP(=O)(OC)C(C)OC(=O)COc1cccc(Cl)c1Cl (centres undefined)	19.1	35.5	74.11	13.6	43.8	23.3	0	0	8.3	16.7	0
COP(=O)(OC)C(C)OC(=O)COc1cccc(F)c1 (centres undefined)	4.4	22.7	111.13	17.8	0	0	0	0	0	0	0
COP(=O)(OC)C(C)OC(=O)COc1ccc(F)cc1F (centres undefined)	36	48.5	0.59	20.2	77.5	61	73.6	49.4	52.1	38.9	39.3
COP(=O)(OC)C(C)OC(=O)COc1cc(F)cc(F)c1 (centres undefined)	0	27.2	93.5	3.8	14.9	0	0	0	10.4	0	0
COP(=O)(OC)C(OC(=O)COc1cccc(C(F)(F)F)c1)c1ccc(C)cc1 (centres undefined)	80.4	0	4.04	23.6	96.2	14.2	95.7	91.2	100	100	50.4
COP(=O)(OC)C(OC(=O)COc1cccc(C(F)(F)F)c1)c1ccccc1Cl (centres undefined)	54	36	3.57	23.5	100	54.6	97.9	100	100	100	61
COP(=O)(OC)C(OC(=O)COc1cccc(C(F)(F)F)c1)c1ccc(Cl)cc1 (centres undefined)	84.2	12	3.16	0	88.5	57.4	91.5	100	89.8	100	38.6
COP(=O)(OC)C(OC(=O)COc1ccc([N+](=O)[O-])cc1)c1ccccc1 (centres undefined)	0.8	-5.2	223	0		5.49	0				-2.78
COP(=O)(OC)C(C)OC(=O)COc1ccccc1 (centres undefined)	0	0	89.1	12	5	21	0	9.4	27.2	0	7.1
CCOP(=O)(OCC)C(OC(=O)COc1cccc(C(F)(F)F)c1)c1ccc2c(c1)OCO2 (centres undefined)	80.4	24	5.91	0	88.5	61.7	100	100	93.2	95.5	12.6
CCOP(=O)(OCC)C(C)OC(=O)COc1ccc(C)cc1 (centres undefined)		0		47.4	0	30.9	0				62.17
COP(=O)(OC)C(OC(=O)COc1ccc(Cl)cc1Cl)c1ccccc1Cl (centres undefined)	70	68.75	0.048	50	100	100	50			100	100
COP(=O)([O-])COC(=O)COc1ccc(Cl)cc1Cl.[Na+]	84.6	28.6	0.31	28	100	97.7	90.3	92.5	100	96.6	96.6
CCCC(OC(=O)COc1ccc(Cl)cc1Cl)P(=O)([O-])OC.[K+] (centres undefined)	32.1	38.9	4.21	33.8	38.5	42.6	35.2	91.2	10.2	18.6	37
O=C(COc1ccc(Cl)cc1Cl)OC(c1ccccc1Cl)P(=O)(O)O (centres undefined)	10	13		20.5	23	49	23			23	67
COP(=O)(OC)C(C)OC(=O)COc1cccc(C(F)(F)F)c1 (centres undefined)	57.3	39.1		12.3	27.3	92.6	73.1	100	63.8	43.4	56.1
CCOP(=O)(OCC)C(OC(=O)COc1cccc(C(F)(F)F)c1)c1ccc(Cl)cc1 (centres undefined)	76.5	16	4.32	5.6	86.3	45.4	95.7	100	100	86.4	13.8
COP(=O)(OC)C(OC(=O)COc1cccc(C(F)(F)F)c1)c1ccc2c(c1)OCO2 (centres undefined)	70.6	12	4.87	15.3	88.5	43.3	93.2	100	100	100	64.6
O=C(O)COc1ccc(Cl)cc1Cl [2,4-DICHLOROPHENOXYACETIC ACID]	80	59.6	0.1379	54.5	100	89.13	88.7	95.5	90	95.5	100
COP(=O)(OC)C(C)OC(=O)COc1ccc(Cl)cc1Cl (centres undefined) [CLACYFOS]	70	55		50	100	100	70	100	98	100	99.5
